Assays:
H358 cells = test: Inhibition of proliferation of H358 cells (CellTiter-Glo 3D); type: cell-based; settings: Homo sapiens, NCI-H358, low adsorption plate, 120 h
Procedure: This example is intended to evaluate the inhibition effect of the compounds of the present disclosure on the KRAS target (containing the G12C mutation) by testing the inhibition effect of the compounds of the present disclosure on the proliferation of H358 cells.
H358 cells (ATCC, CRL-5807) were cultured in a complete medium, namely RPMI1640 medium (Hyclone, SH30809.01) containing 10% fetal bovine serum (Corning, 35-076-CV). On the first day of the experiment, the H358 cells were seeded into a 96-well low adsorption plate (Coming, CLS7007-24EA) at a density of 1500 cells/well with a complete medium to form 90 μL of cell suspension per well. The plate was centrifuged at 2000 rpm for 5 min at room temperature and then incubated overnight in a cell incubator at 37° C. with 5% CO2. The next day, 10 μL of test compound diluted in a gradient prepared with the complete medium was added to each well. The final concentrations of the compound were 9 concentration points obtained by 5-fold gradient dilution from 10 μM. A blank control containing 0.1% DMSO was set. The plate was incubated in a cell incubator at 37° C. with 5% CO2 for 120 h. On the seventh day, the 96-well cell culture plate was taken out and 50 μL of CellTiter-Glo® 3D reagent (Promega, G9682) was added into each well. The plate was shaken at room temperature for 25 min, pipetted and mixed well, from which 50 μL of the mixture was transferred into a white impermeable 96-well plate (PE, 6005290). The luminescence signal values were read using a multi-mode microplate reader (PerkinElmer, VICTOR 3).
IC50 values for the inhibitory activity of the compounds were calculated using Graphpad Prism software.

[1] = test system: ERK phosphorylation of H358 cells; test: Inhibition of ERK phosphorylation of H358 cells (HTRF pERK/total ERK); type: cell-based; settings: Homo sapiens, NCI-H358, 1 h incubation, pERK/total ERK ratio
Procedure: This experiment is intended to evaluate the inhibition effect of the compounds of the present disclosure on the KRAS target (containing the G12C mutation) according to IC50 by determining the inhibition effect of the compounds on ERK phosphorylation of the cells.
H358 cells (ATCC, CRL-5807) were cultured in RPMI1640 (Hyclone, SH30809.01) complete medium containing 10% fetal bovine serum. On the first day of the experiment, the H358 cells were seeded into a 96-well plate at a density of 25,000 cells/well with a complete medium to form 190 μL of cell suspension per well. The plate was incubated overnight in a cell incubator at 37° C. with 5% CO2. The next day, 10 μL of test compound diluted in a gradient prepared with the complete medium was added to each well. The final concentrations of the compound were 9 concentration points obtained by 5-fold gradient dilution from 10 μM. A blank control containing 0.1% DMSO was set. The plate was incubated in a cell incubator at 37° C. with 5% CO2 for 1 h. 1 h later, the 96-well cell culture plate was taken out, the medium was removed by pipetting, 200 μL PBS (Shanghai BasalMedia Technologies Co., Ltd., B320) was added to each well, and the cells were washed once. PBS was removed by pipetting, 50 μL of lysis buffer (Cisbio, 64KL1FDF) containing a blocking reagent (Cisbio, 64KB1AAC) was added to each well, and the plate was shaken on a shaker at room temperature for 40 min for lysis. After lysis, the lysate was pipetted and mixed well, 16 μL of lysate was transferred from each well to each of two HTRF 96-well assay plates (Cisbio, 66PL96100), and then 4 μL of premixed phospho-ERK1/2 antibody solution (Cisbio, 64AERPEG) or 4 μL of premixed total-ERK1/2 antibody solution (Cisbio, 64NRKPEG) was added to each of the two plates. The microplate was sealed with a sealing membrane, centrifuged for 1 min in a microplate centrifuge, and incubated overnight at room temperature away from the light. On the third day, the fluorescence values at an excitation wavelength of 337 nm and at emission wavelengths of 665 nm and 620 nm were read using a PHERAstar multi-mode microplate reader (BMG Labtech, S/N 471-0361).
IC50 values for inhibitory activity of the compounds were calculated using Graphpad Prism software based on compound concentrations and pERK/total ERK ratio.

[2] = target: T1, interaction between the KRAS protein subtype G12V and the SOS1 protein (Homo sapiens, UniProt Q07889); test: Inhibition of the interaction between KRAS G12V and SOS1 protein (AlphaLISA/AlphaScreen); type: binding; settings: KRAS G12V + GST-TEV-SOS1(564-1049) + GDP
T1 construct: GST-TEV-SOS1(564-1049) (Viva Biotech, SOS1-191010); purchased SOS1: Viva Biotech; KRAS: Shanghai Panchao Biotechnology Co., Ltd. SOS1-191010
T1 sequence (Q07889 564-1049): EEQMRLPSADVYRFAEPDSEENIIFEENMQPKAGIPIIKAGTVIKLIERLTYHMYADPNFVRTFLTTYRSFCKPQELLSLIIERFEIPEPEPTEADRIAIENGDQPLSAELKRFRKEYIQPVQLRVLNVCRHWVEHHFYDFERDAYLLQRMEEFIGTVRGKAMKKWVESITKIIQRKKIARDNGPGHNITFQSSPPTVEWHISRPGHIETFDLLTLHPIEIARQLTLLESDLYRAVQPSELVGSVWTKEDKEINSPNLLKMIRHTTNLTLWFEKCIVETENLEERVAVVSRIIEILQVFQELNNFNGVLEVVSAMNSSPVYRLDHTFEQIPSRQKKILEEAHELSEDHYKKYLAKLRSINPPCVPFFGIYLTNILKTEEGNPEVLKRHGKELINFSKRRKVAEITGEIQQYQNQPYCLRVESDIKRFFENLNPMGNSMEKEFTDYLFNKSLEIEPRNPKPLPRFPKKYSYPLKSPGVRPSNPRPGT
Procedure: (§1) Test Example 1: Inhibitory Ability of Compounds of the Present Disclosure to the Interaction Between the KRAS Protein Subtype G12D or G12V and the SOS1 Protein. The inhibitory ability of the compounds of the present disclosure to the interaction between the KRAS protein subtype G12D or G12V and the SOS1 protein was determined by the following method. The experimental method was briefly described as follows:
(§2) 1. The experimental buffer was prepared prior to the start of the experiment: 1×PBS+0.1% BSA+0.05% tween 20.
(§3) 2. KRAS G12D and KRAS-G12V proteins were labeled with biotin using the biotin labeling kit.
(§4) 1. Firstly, the biotin-labeled KRAS G12D or KRAS G12V protein was mixed and incubated with the SOS1 protein and GDP for later use.
(§5) 2. AlphaLISA glutathione acceptor beads and AlphaScreen streptavidin donor beads were mixed at a ratio of 1:1 to make the concentration of 40 μg/mL for later use.
(§6) 3. The compound was formulated with the experimental buffer to obtain 10 concentration points by 5-fold gradient dilution from an initial concentration of 40 μM.
(§7) 4. In the 384-well microplate, 10 μL of a mixture of KRAS G12D or KRAS G12V protein and SOS1 and GDP and 5 μL of the diluted compound were added to each well and incubated at room temperature for 30 min away from the light.
(§8) 5. Then, 5 μL of a mixture of AlphaLISA glutathione acceptor beads and AlphaScreen streptavidin donor beads was added to each well and incubated at room temperature for 60 min away from the light.
(§9) 6. The fluorescence values were read on a multi-mode microplate reader.
(§10) 7. IC50 values of the compounds were calculated using Graphpad Prism.

[3] = target: T2, interaction between the KRAS protein subtype G12D and the SOS1 protein (Homo sapiens, UniProt Q07889); test: Inhibition of the interaction between KRAS G12D and SOS1 protein (AlphaLISA/AlphaScreen); type: binding; settings: KRAS G12D + GST-TEV-SOS1(564-1049) + GDP
T2 construct: GST-TEV-SOS1(564-1049) (Viva Biotech, SOS1-191010); purchased SOS1: Viva Biotech; KRAS: Shanghai Panchao Biotechnology Co., Ltd. SOS1-191010
T2 sequence (Q07889 564-1049): T1 sequence (Q07889 564-1049)
Procedure: as §1, §2, §3, §4, §5, §6, §7, §8, §9, §10

Compound	IC50 (H358 cells)	IC50 [2]	IC50 [3]	IC50 [1]
COCC(=O)N1CCC(c2cc3c(N[C@H](C)c4cccc(C(F)F)c4F)nc(C)nc3[nH]c2=O)CC1 [Example 20, (R)-4-((1-(3-(difluoromethyl)-2-fluorophenyl)ethyl)amino)-6-(1-(2-methoxyacetyl)piperidin-4-yl)-2-methylpyrido[2,3-d]pyrimidin-7(8H)-one]	118 nM	60 nM	19 nM	78 nM
Cc1nc(N[C@H](C)c2cccc(C(F)F)c2F)c2cc(OC3CN(C(=O)CF)C3)c(=O)[nH]c2n1 [Example 27, (R)-4-((1-(3-(difluoromethyl)-2-fluorophenyl)ethyl)amino)-6-((1-(2-fluoroacetyl)azetidin-3-yl)oxy)-2-methylpyrido[2,3-R]pyrimidin-7(8H)-one]	202 nM	52 nM	20 nM	258 nM
Cc1nc(N[C@H](C)c2cccc(C(F)F)c2F)c2cc(N3CCOCC3)c(=O)[nH]c2n1 [Example 16, (R)-4-((1-(3-(difluoromethyl)-2-fluorophenyl)ethyl)amino)-2-methyl-6-morpholinopyrido[2,3-d]pyrimidin-7(8H)-one]	97 nM	136 nM	39 nM	218 nM
CC(=O)N1CCC(O)(c2cc3c(N[C@H](C)c4cccc(C(F)F)c4F)nc(C)nc3[nH]c2=O)CC1 [Example 12, (R)-6-(1-acetyl-4-hydroxypiperidin-4-yl)-4-((1-(3-(difluoromethyl)-2-fluorophenyl)ethyl)amino)-2-methylpyrido[2,3-d]pyrimidin-7(8H)-one]	55 nM	50 nM	14 nM	48 nM

Continued, in another order:

IC50 (H358 cells)	IC50 [2]	IC50 [3]	Compound	IC50 [1]
120 nM	35 nM	31 nM	Cc1nc(N[C@H](C)c2cccc3c2OCC3(F)F)c2cc([C@]3(O)CC[C@@H](O)CC3)c(=O)[nH]c2n1 (racemic) [Example 25-p1, rac-4-(((R)-1-(3,3-difluoro-2,3-dihydrobenzofuran-7-yl)ethyl)amino)-6-((1s,4S)-1,4-dihydroxycyclohexyl)-2-methylpyrido[2,3-d]pyrimidin-7(8H)-one]	101 nM
716 nM	187 nM	175 nM	Cc1nc(N[C@H](C)c2cccc(C(F)F)c2F)c2cc([C@]3(O)CC[C@H](O)CC3)c(=O)n(C)c2n1 [Example 28-p2, 4-(((R)-1-(3-(difluoromethyl)-2-fluorophenyl)ethyl)amino)-6-((1r,4R)-1,4-dihydroxycyclohexyl)-2,8-dimethylpyrido[2,3-d]pyrimidin-7(8H)-one]	937 nM

From patent publication US20230219951A1, “PYRIDINE-PYRIMIDINE DERIVATIVE, PREPARATION METHOD THEREFOR AND PHARMACEUTICAL USE THEREOF” (Jiangsu Hengrui Pharmaceuticals Co., Ltd., priority 2020, published 2023)
